16 compounds from US20230183219A1, “CONDENSED SUBSTITUTED HYDROPYRROLES AS ANTAGONISTS OF THE MUSCARINIC ACETYLCHOLINE RECEPTOR M4” (Vanderbilt University, priority 2020, published 2023) can be followed below.

For the assay, the target named is T1, Human M4 (Homo sapiens, UniProt P08173).
T1 construct: Human or rat M4 cDNA, along with the chimeric G protein Gqi5, were transfected into Chinese hamster ovary (CHO-K1) cells; expressed in transfected cells; host or cells: CHO-K1 (Chinese hamster ovary, ATCC), stably co-expressing Gqi5
T1 sequence (P08173 1-479): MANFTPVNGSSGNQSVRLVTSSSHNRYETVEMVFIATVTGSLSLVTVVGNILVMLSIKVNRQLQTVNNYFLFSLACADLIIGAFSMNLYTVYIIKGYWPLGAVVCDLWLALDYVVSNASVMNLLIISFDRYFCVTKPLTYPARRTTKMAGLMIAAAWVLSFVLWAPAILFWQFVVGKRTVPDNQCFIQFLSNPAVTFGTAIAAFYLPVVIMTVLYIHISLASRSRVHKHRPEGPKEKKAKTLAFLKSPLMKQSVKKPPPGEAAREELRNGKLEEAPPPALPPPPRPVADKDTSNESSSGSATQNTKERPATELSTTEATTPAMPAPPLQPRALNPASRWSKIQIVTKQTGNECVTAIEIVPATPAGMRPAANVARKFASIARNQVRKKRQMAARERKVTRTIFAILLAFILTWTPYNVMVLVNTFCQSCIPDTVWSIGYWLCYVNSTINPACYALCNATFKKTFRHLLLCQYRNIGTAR
As to the kind of experiment: mAChR M4 cell-based functional assay (calcium flux, decrease of EC80 acetylcholine response). The conditions noted are these: for remaining activity at 30 µM: % ACh maximum at 30 μM, read-out: Human M4 Emin; for IC50: M4/Gqi5/CHO-K1 cells, decrease of response to EC80 acetylcholine. Summed up:
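CHO-K1 cells stably co-expressing M4 and chimeric Gqi5, loaded with Fluo-4 AM; calcium flux read on FDSS. Compound added at 2 s, EC20 acetylcholine at 143 s, EC80 acetylcholine at 268 s. IC50 from concentration-dependent decrease of the EC80 response, four-parameter logistic fit; 10-point 1:3 titrations.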
In general terms: A change in cytosolic calcium serves as a functional read-out for many receptors and channels.

As usually defined, the IC50 is the concentration that inhibits the measured activity by half. Regarding `FC(F)(F)c1cc(-c2cccnc2)nnc1N[C@H]1C[C@@H]2CN(CC3CCOCC3)C[C@@H]2C1` [Example 68, (3aR,5s,6aS)-N-(6-(pyridin-3-yl)-4-(trifluoro-methyl)pyridazin-3-yl)-2-((tetrahydro-2H-pyran-4-yl)methyl)octahydro-cyclopenta[c]pyrrol-5-amine], the remaining activity at 30 µM amounted to 3% and the IC50 stood at 161 nM.

For `Fc1ccc(F)c(-c2cc(C(F)(F)F)c(N[C@H]3C[C@@H]4CN(C[C@@H]5COCCO5)C[C@@H]4C3)nn2)c1` [Example 69, (3aR,5s,6aS)-2-(((R)-1,4-dioxan-2-yl)methyl)-N-(6-(2,5-difluorophenyl)-4-(trifluoromethyl)pyridazin-3-yl)octahydro-cyclopenta[c]pyrrol-5-amine], the remaining activity at 30 µM was 3% and the IC50 turned out to be 242 nM.

`Fc1ccc(F)c(-c2cc(C(F)(F)F)c(N[C@H]3C[C@@H]4CN(C[C@H]5COCCO5)C[C@@H]4C3)nn2)c1` [Example 70, (3aR,5s,6aS)-2-(((S)-1,4-dioxan-2-yl)methyl)-N-(6-(2,5-difluorophenyl)-4-(trifluoromethyl)pyridazin-3-yl)octahydro-cyclopenta[c]pyrrol-5-amine]: the remaining activity at 30 µM was determined as 3% and the IC50 was determined as 142 nM.

Consider `Cc1ccc(C)c(-c2cc(C(F)(F)F)c(N[C@H]3C[C@@H]4CN(C[C@@H]5COCCO5)C[C@@H]4C3)nn2)c1` [Example 71, (3aR,5s,6aS)-2-(((R)-1,4-dioxan-2-yl)methyl)-N-(6-(2,5-dimethylphenyl)-4-(trifluoromethyl)pyridazin-3-yl)octahydro-cyclopenta[c]pyrrol-5-amine], for which the remaining activity at 30 µM amounted to 3% and the concentration for half-maximal inhibition (IC50) is 183 nM.

With `Cc1ccc(C)c(-c2cc(C(F)(F)F)c(N[C@H]3C[C@@H]4CN(C[C@H]5COCCO5)C[C@@H]4C3)nn2)c1` [Example 72, (3aR,5s,6aS)-2-(((S)-1,4-dioxan-2-yl)methyl)-N-(6-(2,5-dimethylphenyl)-4-(trifluoromethyl)pyridazin-3-yl)octahydro-cyclopenta[c]pyrrol-5-amine], the remaining activity at 30 µM was 3% and the half-inhibitory concentration (IC50) came out at 52.9 nM.

With `CCOc1ccc(F)cc1-c1cc(C(F)(F)F)c(N[C@H]2C[C@@H]3CN(CC4CCOCC4)C[C@@H]3C2)nn1` [Example 73, (3aR,5s,6aS)-N-(6-(2-ethoxy-5-fluorophenyl)-4-(trifluoromethyl)pyridazin-3-yl)-2-((tetrahydro-2H-pyran-4-yl)methyl)octahydro-cyclopenta[c]pyrrol-5-amine], the remaining activity at 30 µM was found to be 3% and the IC50 came out at 201 nM.

For `Cc1cc(F)ccc1-c1cc(C(F)(F)F)c(N[C@H]2C[C@@H]3CN(CC4CCOCC4)C[C@@H]3C2)nn1` [Example 74, (3aR,5s,6aS)-N-(6-(4-fluoro-2-methylphenyl)-4-(trifluoromethyl)pyridazin-3-yl)-2-((tetrahydro-2H-pyran-4-yl)methyl)octahydro-cyclopenta[c]pyrrol-5-amine], the remaining activity at 30 µM came to 3% and the IC50 is 38.9 nM.

As to `Cn1ncc2cc(-c3cc(C(F)(F)F)c(N[C@H]4C[C@@H]5CN(CC6CCOCC6)C[C@@H]5C4)nn3)ccc21` [Example 75, (3aR,5s,6aS)-N-(6-(1-methyl-1H-indazol-5-yl)-4-(trifluoromethyl)pyridazin-3-yl)-2-((tetrahydro-2H-pyran-4-yl)methyl)octahydro-cyclopenta[c]pyrrol-5-amine], the remaining activity at 30 µM is 3% and the 50% inhibitory concentration (IC50) amounted to 45.1 nM.

With `Cn1cnc2ccc(-c3cc(C(F)(F)F)c(N[C@H]4C[C@@H]5CN(CC6CCOCC6)C[C@@H]5C4)nn3)cc21` [Example 76, (3aR,5s,6aS)-N-(6-(1-methyl-1H-benzo[d]imidazol-6-yl)-4-(trifluoromethyl)pyridazin-3-yl)-2-((tetrahydro-2H-pyran-4-yl)methyl)octahydro-cyclopenta[c]pyrrol-5-amine], the remaining activity at 30 µM is 3% and the IC50 worked out at 93.8 nM.

As for `COc1ccc(-c2cc(C(F)(F)F)c(N[C@H]3C[C@@H]4CN(CC5CCOCC5)C[C@@H]4C3)nn2)c(C)c1` [Example 77, (3aR,5s,6aS)-N-(6-(4-methoxy-2-methylphenyl)-4-(trifluoromethyl)pyridazin-3-yl)-2-((tetrahydro-2H-pyran-4-yl)methyl)octahydro-cyclopenta[c]pyrrol-5-amine], the remaining activity at 30 µM was determined as 3% and the IC50 stood at 38 nM.

For the compound `COc1cc(F)c(-c2cc(C(F)(F)F)c(N[C@H]3C[C@@H]4CN(CC5CCOCC5)C[C@@H]4C3)nn2)cc1F` [Example 78, (3aR,5s,6aS)-N-(6-(2,5-difluoro-4-methoxyphenyl)-4-(trifluoromethyl)pyridazin-3-yl)-2-((tetrahydro-2H-pyran-4-yl)methyl)octahydro-cyclopenta[c]pyrrol-5-amine], the remaining activity at 30 µM was determined as 3% and the 50% inhibitory concentration (IC50) stood at 172 nM.

Regarding `Cc1ccc(-c2cc(C(F)(F)F)c(N[C@H]3C[C@@H]4CN(CC5CCOCC5)C[C@@H]4C3)nn2)c(F)c1` [Example 79, (3aR,5s,6aS)-N-(6-(2-fluoro-4-methylphenyl)-4-(trifluoromethyl)pyridazin-3-yl)-2-((tetrahydro-2H-pyran-4-yl)methyl)octahydro-cyclopenta[c]pyrrol-5-amine], the remaining activity at 30 µM was 3% and the IC50 is 349 nM.

For the compound `COc1c(F)cc(-c2cc(C(F)(F)F)c(N[C@H]3C[C@@H]4CN(CC5CCOCC5)C[C@@H]4C3)nn2)cc1F` [Example 80, (3aR,5s,6aS)-N-(6-(3,5-difluoro-4-methoxyphenyl)-4-(trifluoromethyl)pyridazin-3-yl)-2-((tetrahydro-2H-pyran-4-yl)methyl)octahydro-cyclopenta[c]pyrrol-5-amine], the remaining activity at 30 µM was found to be 3% and the IC50 was 170 nM.

With `Fc1cccc(-c2cc(C(F)(F)F)c(N[C@H]3C[C@@H]4CN(CC5CCOCC5)C[C@@H]4C3)nn2)c1F` [Example 81, (3aR,5s,6aS)-N-(6-(2,3-difluorophenyl)-4-(trifluoro-methyl)pyridazin-3-yl)-2-((tetrahydro-2H-pyran-4-yl)methyl)octahydro-cyclopenta[c]pyrrol-5-amine], the remaining activity at 30 µM stood at 3% and the IC50 was found to be 178 nM.

Take `Fc1ccc(-c2cc(C(F)(F)F)c(N[C@H]3C[C@@H]4CN(CC5CCOCC5)C[C@@H]4C3)nn2)c(F)c1` [Example 82, (3aR,5s,6aS)-N-(6-(2,4-difluorophenyl)-4-(trifluoro-methyl)pyridazin-3-yl)-2-((tetrahydro-2H-pyran-4-yl)methyl)octahydro-cyclopenta[c]pyrrol-5-amine]: the remaining activity at 30 µM worked out at 3% and the IC50 was 286 nM.

`Fc1cc(OC(F)F)ccc1-c1cc(C(F)(F)F)c(N[C@H]2C[C@@H]3CN(CC4CCOCC4)C[C@@H]3C2)nn1` [Example 83, (3aR,5s,6aS)-N-(6-(2-fluoro-4-(difluoromethoxy)phenyl)-4-(trifluoromethyl)pyridazin-3-yl)-2-((tetrahydro-2H-pyran-4-yl)methyl)octahydro-cyclopenta[c]pyrrol-5-amine]: the remaining activity at 30 µM worked out at 3% and the half-inhibitory concentration (IC50) turned out to be 408 nM.
